In paper PMC8512560, “Design, Synthesis, and Antipoliferative Activities of Novel Substituted Imidazole-Thione Linked Benzotriazole Derivatives” (Molecules, 2021):
Values joined by “and” are separate entries in the source; they are usually repeats but may differ in a detail not shown here. Equal values may be shown once.

Assays:
[1] = system: HL-60 human leukemia cancer cell line; assay: MTT viability assay, HL-60; type: cell-based; settings: Homo sapiens, HL-60, 72 h, mean ± SD of three independent experiments, read-out: Antiproliferative Activities IC50, HL-60
Experimental: (§1) All the human tumour cell lines MCF-7, HL-60, HCT-116, and HUVEC were cultured in Dulbecco’s Modified Eagle’s Medium (DMEM) with 10% fetal bovine serum, 2 mM L-glutamine and 100 µg/mL penicillin/streptomycin. Cells were maintained at 37 °C in 5% CO2 in a humidified incubator. All cells were sub-cultured three times/week by trypsinization using TrypLE Express (1X).
(§2) The Benzotriazole compounds were evaluated for antiproliferative effect using the MTT viability assay of various cancer cell lines (MCF-7, HCT-116 and HL-60) and the normal human umbilical vein endothelial cell line (HUVEC) to calculate the relative IC50 values for each compound. Cells were seeded in triplicate in 96-well plates at a density of 10 × 10^3 cells/mL in a total volume of 200 µL per well. 0.1% of DMSO was used as a vehicle control. After this time, they were treated with 2 µL test compound which had been pre-prepared as stock solutions in ethanol to furnish the concentration range of study, 10 nM to 100 µM, and re-incubated for a further 72 h. The culture medium was then removed, and the cells washed with 100 µL phosphate buffered saline (PBS) and 50 µL MTT added, to reach a final concentration of 1 mg/mL MTT added. Cells were incubated for 2 h in darkness at 37 °C. At this point solubilisation was begun through the addition of […] DMSO and the cells maintained at room temperature in darkness for 20 min to ensure thorough colour diffusion before reading the absorbance. Plates were incubated for 72 h at 37 °C + 5% CO2. The MTT (5 mg/mL in PBS) was added and incubated for another 4 h, and the optical density was detected with a microplate reader at 570 nm. Results were expressed as percentage viability relative to vehicle control (100%). Dose response curves were plotted and IC50 values (concentration of drug resulting in 50% reduction in cell survival) were obtained using the commercial software package Prism (GraphPad Software, Inc., La Jolla, CA, USA). All the experiments were repeated in at least three independent experiments.

[2] = system: HCT-116 human colon cancer cell line; assay: MTT viability assay, HCT-116; type: cell-based; settings: Homo sapiens, HCT-116, 72 h, mean ± SD of three independent experiments, read-out: Antiproliferative Activities IC50, HCT-116
Experimental: as §1, §2

HL-60 cells [3] = assay: Cell cycle analysis by PI flow cytometry; type: cell-based, human; settings: 50 nM
Experimental: HL-60 cells were seeded at a density of 1 × 10^5 cells/well in 6-well plates and treated with CA-4 and compound BI9 (1 µM) for 48 and 72 h. The cells were collected by trypsinization and centrifuged at 800× g for 15 min. Cells were washed twice with ice-cold PBS and fixed in ice-cold 70% ethanol overnight at −20 °C. Fixed cells were centrifuged at 800× g for 15 min and stained with 50 μg/mL of PI, containing 50 μg/mL of DNase-free RNase A, at 37 °C for 30 min. The DNA content of cells (10,000 cells/experimental group) was analysed by flow cytometer at 488 nm using a FACSCalibur flow cytometer (BD Biosciences, San Jose, CA, USA) and all data were recorded and analysed using the CellQuest Software (Becton-Dickinson).

HL-60 cells [4] = assay: Annexin V/PI apoptotic assay by flow cytometry; type: cell-based, human; settings: BI9 1 µM, CA-4 concentration not given, control 1.6%
Experimental: Apoptotic cell death was detected by flow cytometry using Annexin V and propidium iodide (PI). HL-60 Cells were seeded in 6 well plated at density of 1 × 10^5 cells/mL and treated with vehicle (0.1% (v/v) EtOH), positive control (CA-4) or compound BI9 (1 µM) for 48 and 72 h. Cells were then harvested and prepared for flow cytometric analysis. Cells were washed in 1X binding buffer ([…] binding buffer: 0.1M HEPES, pH 7.4; 1.4 M NaCl; 25 mM CaCl2 diluted in dH2O) and incubated in the dark for 30 min on ice in Annexin V-containing binding buffer [1:100]. Cells were then washed once in binding buffer and then re-suspended in PI-containing binding buffer [1:1000]. Samples were analysed immediately using the BD accuri flow cytometer and prism software for analysis the data. Four populations are produced during the assay Annexin V and PI negative (Q4, healthy cells), Annexin V positive and PI negative (Q3, early apoptosis), Annexin V and PI positive (Q2, late apoptosis) and Annexin V negative and PI positive (Q1, necrosis).

[5] = system: MCF-7 human breast cancer cell line; assay: MTT viability assay, MCF-7; type: cell-based; settings: Homo sapiens, MCF7, 72 h, mean ± SD of three independent experiments, read-out: Antiproliferative Activities IC50, MCF-7
Experimental: as §1, §2

[6] = system: colchicine binding site of tubulin; assay: Colchicine site competitive binding assay ([3H]colchicine); settings: tubulin and colchicine at 1 and 5 µM
Experimental: The affinity of Benzotriazole compounds to colchicine binding site was determined using a Colchicine Site Competitive Assay kit CytoDYNAMIX Screen15 (Cytoskeleton, Inc., Denver, CO, USA) using the standard protocol of the manufacturer to determine Ki values (μM). Biotin-labelled tubulin ([…]) and the test compounds (positive control colchicine, negative control vinblastine, G-1, fluorescent G-1, or 2-ME) in a 96-well plate (final volume: 100 μL). After incubating for 2 h at 37 °C with gentle shaking, streptavidin-labelled yttrium SPA beads (80 μg in 20 μL reaction buffer, PerkinElmer, Waltham, MA) were added to each well and incubated for 30 min at 4 °C. The plates were then read on a scintillation counter (Packard Instrument, Topcount Microplate Reader) and the percentage of inhibition was calculated.

bovine brain tubulin = assay: Tubulin polymerization assay (turbidimetric, kit BK006); type: biochemical; settings: read-out: Anti-Tubulin Activity IC50 ± SD (inhibition of tubulin polymerization)
Experimental: The assembly of purified bovine tubulin was monitored using a kit, BK006, purchased from Cytoskeleton Inc., (Denver, CO, USA). The assay was carried out in accordance with the manufacturer’s instructions using the standard assay conditions. Briefly, purified ([…]) in a buffer consisting of 80 mM PIPES (pH 6.9), 0.5 mM EGTA, 2 mM MgCl2, 1 mM GTP and 10% glycerol was incubated at 37 °C in the presence of either vehicle (2% (v/v) ddH2O), CA-4, benzotriazole compounds. Light was scattered proportionally to the concentration of polymerized microtubules in the assay. Therefore, the tubulin assembly was monitored turbidimetrically at 340 nm in a Spectramax 340 PC spectrophotometer (Molecular Devices, Sunnyvale, CA, USA). The concentration that inhibits tubulin polymerization by 50% (IC50) was determined using area under the curve (AUC). The AUC of the untreated controls were considered as 100% polymerization. The IC50 value for each compound was computed using GraphPad Prism Software.

[7] = system: HUVEC human umbilical vein endothelial cell line; assay: MTT viability assay, normal HUVEC cells; type: cell-based; settings: 72 h, mean ± SD of three independent experiments
Experimental: as §1, §2

COc1ccc(/C=C\c2cc(OC)c(OC)c(OC)c2)cc1O [CA-4, Combretastatin A-4, reference compound]
IC50 [1]: 0.77 ± 0.05 µM
IC50 [2]: 0.24 ± 0.02 µM
Proportion of HL-60 cells in G2/M phase (HL-60 cells [3]; 48 h): 40.1%
Proportion of HL-60 cells in G2/M phase (HL-60 cells [3]; 72 h): 46.6%
Total fraction of early and late apoptotic cells (Annexin V positive) (HL-60 cells [4]; 48 h): 18.7%
Average fraction of Annexin V-staining positive cells (total apoptotic cells) (HL-60 cells [4]; 72 h): 23.7%
IC50 [5]: 0.58 ± 0.02 µM
Colchicine Binding % ± SD (inhibition of [3H]colchicine binding), 1 µM Drug ([6]; 1 µM drug): 64% and 64.23 ± 0.9%
Colchicine Binding % ± SD (inhibition of [3H]colchicine binding), 5 µM Drug ([6]; 5 µM drug): 85% and 85.63 ± 2%
IC50 [7]: 13.6 ± 0.65 µM
